Results published in patent publication US20090163406A1, “COMPOSITIONS AND METHODS FOR DIAGNOSING AND TREATING BRAIN CANCER AND IDENTIFYING NEURAL STEM CELLS” (THE REGENTS OF THE UNIVERSITY OF CALIFORNIA, priority 2004, published 2009).
Entries after “also recorded” stand apart in the source; their conditions may differ.

Legend:
[1] = tested on: dividing GFAP positive cells; experiment: Ganciclovir ablation in GFAP promoter HSV-TK transgenic mice, SEZ immunohistochemistry; format: in vivo, mouse; conditions: 21 days ganciclovir, vs non-transgenic controls
Description: PBK/TOPK positive cells are mitotically active progenitors in vivo: The expression pattern in vitro as a mitotically active kinase, coupled with in vivo data, provided evidence that PBK/TOPK was expressed in several mitotically active progenitor cell populations in the central nervous system, but not in quiescent, slower cycling putative stem cells. To more conclusively establish PBK/TOPK expression in stem and progenitor cells in vivo, we examined PBK/TOPK in transgenic mice expressing the herpes simplex virus thymidine kinase gene (HSV-TK) under control of the GFAP promoter (see, e.g., Bush, T. G., et al., Neuron (1999) 23:297-308; Garcia, supra (2004)). Since HSV-TK phosphorylates the drug ganciclovir and phosphorylated ganciclovir kills cells at mitosis, when these mice are given ganciclovir, all dividing GFAP positive cells are killed. […] Three transgenic mice were treated for 21 days with ganciclovir followed by BrdU injections for two days, and then processed for immunohistochemistry. […] This finding provided direct in vivo evidence that PBK/TOPK positive cells arise from proliferating GFAP positive cells, consistent with PBK/TOPK being expressed exclusively by proliferating progenitor cells in the adult brain. […]
Cell counts: For immunocytochemistry, all cells in 10 random 40× fields were counted. […]

[2] = tested on: neural progenitors cultured from E12 mouse telencephalic germinal zones; experiment: Cell number and cell cycle of attached E12 telencephalic neural progenitors in bFGF
[3] = tested on: primary cerebellar granule cells precursors (CGPs); experiment: Cell cycle analysis and cell counts in cultured cerebellar granule cell precursors; format: cell-based, mouse; conditions: for fraction of cells in S-phase: CGP with mitogen, 50 uM, 24 hours, flow cytometric DNA content
Procedure: FIG. 9F: described below. […] Yellow circle indicates normally cycling cells.
Culture of Cerebellar Granule Cell Precursors: Cerebella were harvested from P6-P8 CD1 mouse pups and digested in Papain with DNase, and dissociated in PBS BSA with fire polished pipettes followed by a cell strainer. Granule cell precursors were then separated on a 35%/65% percoll step gradient at 1500 g for 12 minutes as previously described (Wechsler-Reya, supra (1999)). Cells were either transfected at this point or plated at 250K cells/well onto Poly-L-Lysine coated glass coverslips in 24 well plates in 330 uls of Neurobasal Media containing 2% B27 supplement, 1 mM sodium pyruvate, 2 mM glutamine, and 1% penicillin/streptomycin, supplemented with 2.5 ug/ml mouse recombinant Sonic Hedge Hog (R&D systems 461-5H-025) as noted in the text, above.
Cell counts: For immunocytochemistry, all cells in 10 random 40× fields were counted. For the stem cell ablation experiments we used stereo investigator to count all PBK/TOPK cells in the SEZ ventral to the anterior horn at the level of the anterior commissure bilaterally in 3 replicate animals. T-tests were performed in Microsoft Excel.

Daoy cells = experiment: Daoy medulloblastoma cell growth (total cell number); format: cell-based, human; conditions: cyclopamine alone or combined with MELK siRNA
Procedure: Transient Transfection. […] For transfection of plasmid vectors, the cells were incubated with reagents for 6 hours with the primary progenitor cells, and for 24 hours with N2a cells. […] Incubation with siRNA complex was 6 hours with primary cells and 24 hours with cell lines.
We then examined whether the effect of MELK siRNA is for cell survival or cell proliferation.
Propium iodide-labeled tumor populations were measured for cell death assay after treatment of siRNA for two days (e).

[4] = CGP, twenty-four hours of P38 inhibition

Structure (SMILES): Nc1nc(O)c2ncn(COC(CO)CO)c2n1 [ganciclovir]
- Dcx positive cells in SEZ [1]: complete ablation

Structure (SMILES): C[S+]([O-])c1ccc(-c2nc(-c3ccncc3)c(-c3ccc(F)cc3)[nH]2)cc1 (centres unmarked) [SB203580]
- cycling cells assessed by flow cytometry ([2]; in the presence of bFGF): decrease in cycling cells
- DNA aneuploidy ([2]; long exposures or high doses, 48 hours at highest dose): resulted in DNA aneuploidy; also recorded: accumulation of DNA-aneuploid cells
- cell number ([2]; varying doses, in the presence of bFGF): dose dependant decrease in proliferation; also recorded: dose dependant decrease in cell number
- fraction of cells in S-phase [3]: reduces fraction of S-Phase cells; also recorded: dramatic decrease in the fraction of cells in S-phase
- fraction of cells in S-phase ([3]; listed as sb203580): significant decrease in the number of cells re-entering S-phase
- cell number in the absence of mitogen ([3]; CGP without mitogen treatment): no impact on cell number
- number of NeuN positive cells [3, 4]: without significantly impacting; also recorded: without any impact
- number of PBK/TOPK positive cells [3, 4]: reduces PBK/TOPK positive cells; also recorded: reduction in the number of the PBK/TOPK positive cells
- total number of cells ([3]; proliferating neuronal progenitors): decrease in the total number of cells

Structure (SMILES): CC1=C2C[C@H]3[C@@H](CC=C4C[C@@H](O)CC[C@@]43C)[C@@H]2CC[C@]12O[C@@H]1C[C@H](C)CN[C@H]1[C@H]2C [cyclopamine]
- Daoy cell growth / proliferation with shh-Gli1 pathway inhibitor (Daoy cells): inhibition of cell growth
